Measurements: patent publication US20220331303A1, “USE OF AN OREXIN 2 RECEPTOR AGONIST FOR THE TREATMENT OF EXCESSIVE SLEEPINESS” (Takeda Pharmaceutical Company Limited, priority 2019, published 2022)
Where two headings read alike, the source gives them in different places.

Test: Multiple-dose plasma PK of IV Compound A in patients with NT2
Assay type: in vivo, human
Details: for Cmax / concentration at 1 h / concentration at 2 h / concentration at 4 h / concentration at 6 h / concentration at 9 h / Tmax / AUC(0-inf) / AUC(0-t) / AUC / clearance / Vd: human, plasma, intravenous; for concentration at 1 h: 1 Hour Postdose at Day 1; for concentration at 2 h: 2 Hours Postdose at Day 1; for concentration at 4 h: 4 Hours Postdose at Day 1; for concentration at 6 h: 6 Hours Postdose at Day 1; for clearance: read-out: CL Mean (converted)
Method: The purpose of the study was to evaluate the safety, tolerability, pharmacokinetics and pharmacodynamics of Compound A after multiple days of IV administration in patients with NT2. NT2 patients were evaluated in Cohort C1 and C2 (Table 30). Compound A or placebo were administered via IV infusion over 9 hours once daily for 7 days. A total of 14 patients with NT2 were treated with Compound A or placebo (5, 4, and 5 subjects in the placebo, Compound A 44 mg, and Compound A 112 mg groups, respectively). In this part, potential efficacy of Compound A was evaluated with MWT, ESS, KSS, night-time PSG (NPSG), and PGI-C as an exploratory PD assessment.
Blood samples used for PK analysis of Compound A was collected according to Table 31. See also FIG. 10 for whole schedules of study procedures.

COC(=O)N1CCC[C@H](NS(C)(=O)=O)[C@@H]1CO[C@H]1CC[C@@H](c2ccccc2)CC1 [Compound A, methyl (2R,3S)-3-((methylsulfonyl)amino)-2-(((cis-4-phenylcyclohexyl)oxy)methyl)piperidine-1-carboxylate]
Plasma Concentration Mean (Cmpd A 44 mg, 0.17 Hour after End of Infusion at Day 1): 45.48 ng/mL | Plasma Concentration Mean (Cmpd A 44 mg, 0.5 Hour after End of Infusion at Day 1): 33.98 ng/mL | Plasma Concentration Mean (Cmpd A 44 mg, 2 Hours after End of Infusion at Day 1): 16.33 ng/mL | Plasma Concentration Mean (Cmpd A 44 mg, 6 Hours after End of Infusion at Day 1): 5.020 ng/mL | Plasma Concentration Mean (Cmpd A 44 mg, 9 Hours Postdose at Day 5): 73.15 ng/mL | Plasma Concentration Mean (Cmpd A 44 mg, 9 Hours Postdose at Day 6): 65.80 ng/mL | Plasma Concentration Mean (Cmpd A 44 mg, 10 Hours after End of Infusion at Day 1): 2.515 ng/mL | Plasma Concentration Mean (Cmpd A 44 mg, 14 Hours after End of Infusion at Day 1): 0.7016 ng/mL | AUCtau D Mean (Cmpd A 44 mg, Day 1): 14.83 ng·h/mL/mg | Cmax D Mean (Cmpd A 44 mg, Day 1): 1.685 ng/mL/mg | t½z Mean (Cmpd A 44 mg, Day 1): 2.708 h | AUCtau D Mean (Cmpd A 44 mg, Day 7): 15.00 ng·h/mL/mg | Cmax D Mean (Cmpd A 44 mg, Day 7): 1.745 ng/mL/mg | PTR Mean (Cmpd A 44 mg, Day 7): 202.0 | UCtau Geo Mean (Cmpd A 44 mg, Day 7): 657.1 ng·h/mL | UCtau Mean (Cmpd A 44 mg, Day 7): 660.0 ng·h/mL | t½z Mean (Cmpd A 44 mg, Day 7): 2.643 h | Plasma Concentration Mean (Cmpd A 44 mg, Predose at Day 1): 0.000 ng/mL | Plasma Concentration Mean (Cmpd A 44 mg, Predose at Day 5): 0.9273 ng/mL | Plasma Concentration Mean (Cmpd A 44 mg, Predose at Day 6): 0.7163 ng/mL | Plasma Concentration Mean (Cmpd A 44 mg, Predose at Day 7): 0.5635 ng/mL | Plasma Concentration Mean (Cmpd A 112 mg, 0.17 Hour after End of Infusion at Day 1): 81.03 ng/mL | Plasma Concentration Mean (Cmpd A 112 mg, 0.5 Hour after End of Infusion at Day 1): 75.26 ng/mL | Plasma Concentration Mean (Cmpd A 112 mg, 2 Hours after End of Infusion at Day 1): 32.46 ng/mL | Plasma Concentration Mean (Cmpd A 112 mg, 6 Hours after End of Infusion at Day 1): 12.03 ng/mL | Plasma Concentration Mean (Cmpd A 112 mg, 10 Hours after End of Infusion at Day 1): 5.610 ng/mL | AUCtau D Mean (Cmpd A 112 mg, Day 1): 13.52 ng·h/mL/mg | Cmax D Mean (Cmpd A 112 mg, Day 1): 1.540 ng/mL/mg | t½z Mean (Cmpd A 112 mg, Day 1): 2.800 h | AUCtau D Mean (Cmpd A 112 mg, Day 7): 13.68 ng·h/mL/mg | Cmax D Mean (Cmpd A 112 mg, Day 7): 1.550 ng/mL/mg | PTR Mean (Cmpd A 112 mg, Day 7): 201.1 | UCtau Geo Mean (Cmpd A 112 mg, Day 7): 1519 ng·h/mL | UCtau Mean (Cmpd A 112 mg, Day 7): 1534 ng·h/mL | t½z Mean (Cmpd A 112 mg, Day 7): 3.136 h | Plasma Concentration Mean (Cmpd A 112 mg, Predose at Day 1): 0.000 ng/mL | Drug accumulation (QD 9-hour IV infusion daily for 7 days): no drug accumulation was observed | Dose proportionality of mean plasma systemic exposures (daily 9-hour IV infusions, 44 and 112 mg): generally increased in a dose proportional manner | Cmax (44 mg, Cmax Geo Mean, Cmpd A 44 mg, Day 7): 76.4 ng/mL | concentration at 1 h (44 mg, Cmpd A 44 mg): 47.4 ng/mL | concentration at 2 h (44 mg, Cmpd A 44 mg): 59 ng/mL | concentration at 4 h (44 mg, Cmpd A 44 mg): 74.1 ng/mL | concentration at 6 h (44 mg, Cmpd A 44 mg): 50 ng/mL | concentration at 9 h (44 mg, Cmpd A 44 mg, 9 Hours Postdose at Day 1, read-out: Plasma Concentration Mean): 69 ng/mL | Tmax (44 mg, Cmpd A 44 mg, Day 1): 3.88 h | AUC(0-inf) (44 mg, Cmpd A 44 mg, Day 1, read-out: AUCinf Geo mean): 651 ng·h/mL | AUC(0-inf) (44 mg, Cmpd A 44 mg, Day 1, read-out: AUCinf Mean): 655 ng·h/mL | AUC(0-t) (44 mg, Cmpd A 44 mg, Day 1, read-out: AUClast Geo mean): 648 ng·h/mL | AUC(0-t) (44 mg, Cmpd A 44 mg, Day 1, read-out: AUClast Mean): 652 ng·h/mL | AUC (44 mg, Cmpd A 44 mg, Day 1, read-out: AUCtau Geo mean): 648 ng·h/mL | AUC (44 mg, Cmpd A 44 mg, Day 1, read-out: AUCtau Mean): 652 ng·h/mL | clearance (44 mg, Cmpd A 44 mg, Day 1): 1130 mL/min | concentration at 9 h (44 mg, Cmpd A 44 mg, Day 1, read-out: Ceoi Geo mean): 68.7 ng/mL | concentration at 9 h (44 mg, Cmpd A 44 mg, Day 1, read-out: Ceoi Mean): 69 ng/mL | Cmax (44 mg, Cmpd A 44 mg, Day 1, read-out: Cmax Geo mean): 73.9 ng/mL | Cmax (44 mg, Cmpd A 44 mg, Day 1, read-out: Cmax Mean): 74.1 ng/mL | Vd (44 mg, Cmpd A 44 mg, Day 1, read-out: Vss Mean): 122 L | Vd (44 mg, Cmpd A 44 mg, Day 1, read-out: Vz Mean): 288 L | Tmax (44 mg, Cmpd A 44 mg, Day 7): 3.91 h | AUC(0-t) (44 mg, Cmpd A 44 mg, Day 7, read-out: AUClast Geo Mean): 657 ng·h/mL | AUC(0-t) (44 mg, Cmpd A 44 mg, Day 7, read-out: AUClast Mean): 660 ng·h/mL | clearance (44 mg, Cmpd A 44 mg, Day 7): 1120 mL/min | Cmax (44 mg, Cmpd A 44 mg, Day 7, read-out: Cmax Mean): 76.7 ng/mL | Vd (44 mg, Cmpd A 44 mg, Day 7, read-out: Vss Mean): 114 L | Vd (44 mg, Cmpd A 44 mg, Day 7, read-out: Vz Mean): 258 L | Cmax (112 mg, Cmax Geo Mean, Cmpd A 112 mg, Day 7): 172 ng/mL | concentration at 1 h (112 mg, Cmpd A 112 mg): 123 ng/mL | concentration at 2 h (112 mg, Cmpd A 112 mg): 142 ng/mL | concentration at 4 h (112 mg, Cmpd A 112 mg): 170 ng/mL | concentration at 6 h (112 mg, Cmpd A 112 mg): 138 ng/mL | concentration at 9 h (112 mg, Cmpd A 112 mg, 9 Hours Postdose at Day 1, read-out: Plasma Concentration Mean): 150 ng/mL | Tmax (112 mg, Cmpd A 112 mg, Day 1): 4.93 h | AUC(0-inf) (112 mg, Cmpd A 112 mg, Day 1, read-out: AUCinf Geo mean): 1500 ng·h/mL | AUC(0-inf) (112 mg, Cmpd A 112 mg, Day 1, read-out: AUCinf Mean): 1520 ng·h/mL | AUC(0-t) (112 mg, Cmpd A 112 mg, Day 1, read-out: AUClast Geo mean): 1500 ng·h/mL | AUC(0-t) (112 mg, Cmpd A 112 mg, Day 1, read-out: AUClast Mean): 1520 ng·h/mL | AUC (112 mg, Cmpd A 112 mg, Day 1, read-out: AUCtau Geo mean): 1500 ng·h/mL | AUC (112 mg, Cmpd A 112 mg, Day 1, read-out: AUCtau Mean): 1520 ng·h/mL | clearance (112 mg, Cmpd A 112 mg, Day 1): 1260 mL/min | concentration at 9 h (112 mg, Cmpd A 112 mg, Day 1, read-out: Ceoi Geo mean): 156 ng/mL | concentration at 9 h (112 mg, Cmpd A 112 mg, Day 1, read-out: Ceoi Mean): 158 ng/mL | Cmax (112 mg, Cmpd A 112 mg, Day 1, read-out: Cmax Geo mean): 171 ng/mL | Cmax (112 mg, Cmpd A 112 mg, Day 1, read-out: Cmax Mean): 172 ng/mL | Vd (112 mg, Cmpd A 112 mg, Day 1, read-out: Vss Mean): 121 L | Vd (112 mg, Cmpd A 112 mg, Day 1, read-out: Vz Mean): 299 L | AUC(0-t) (112 mg, Cmpd A 112 mg, Day 7, read-out: AUClast Geo Mean): 1520 ng·h/mL | AUC(0-t) (112 mg, Cmpd A 112 mg, Day 7, read-out: AUClast Mean): 1530 ng·h/mL | clearance (112 mg, Cmpd A 112 mg, Day 7): 1240 mL/min | Cmax (112 mg, Cmpd A 112 mg, Day 7, read-out: Cmax Mean): 173 ng/mL | Vd (112 mg, Cmpd A 112 mg, Day 7, read-out: Vss Mean): 124 L | Vd (112 mg, Cmpd A 112 mg, Day 7, read-out: Vz Mean): 338 L
